The structures appear in SMILES notation.

In this test the target is c-kit mutant D816V (Homo sapiens (Human), UniProt P10721, D816V/DEL694-753). Briefly: c-Kit mutant D816V biochemical assay (AlphaScreen kinase activity). The essentials: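 Recombinant His-tagged c-Kit D816V kinase domain (residues 551-934, insert 694-753 deleted, E. coli-expressed) phosphorylating 30 nM biotin-(E4Y)10 with 10 μM ATP, HEPES pH 7.2, Mg/Mn, 5% DMSO; 30 min, room temperature. Phosphorylation detected by AlphaScreen (streptavidin donor/PY30 acceptor beads); IC50 from 8-point 1:3 series.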
Sequence of c-kit mutant D816V (P10721 other isoform, or with tags, fused parts or gaps D816V/del 694-753): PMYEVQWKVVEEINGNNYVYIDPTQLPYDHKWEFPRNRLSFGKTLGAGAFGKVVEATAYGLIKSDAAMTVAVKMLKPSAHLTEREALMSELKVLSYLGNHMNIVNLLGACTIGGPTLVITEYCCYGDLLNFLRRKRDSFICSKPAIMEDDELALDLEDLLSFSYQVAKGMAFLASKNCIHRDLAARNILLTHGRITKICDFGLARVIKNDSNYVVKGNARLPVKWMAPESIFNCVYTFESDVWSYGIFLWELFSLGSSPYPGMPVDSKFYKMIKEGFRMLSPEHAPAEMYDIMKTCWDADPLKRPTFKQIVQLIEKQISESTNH
A general note: In Alpha technology, singlet oxygen from a donor bead excites a nearby acceptor bead.
Usually IC50 stands for the concentration at which inhibition is half-maximal. In the case of `COc1cccc(-c2[nH]c(C3(C)CCN(c4ncnc5[nH]c(-c6ccc(C(N)=O)cc6)cc45)CC3)nc2C)c1` [P-3225, 4-[4-[4-[5-(3-methoxyphenyl)-4-methyl-1H-imidazol-2-yl]-4-methyl-1-piperidyl]-7H-pyrrolo[2,3-d]pyrimidin-6-yl]benzamide], the IC50 lay in the range of 0.0001 to 1 µM. The figure for `CCOc1ccc(-c2[nH]c(C3(C)CCN(c4ncnc5[nH]c(-c6ccc(C(=O)NC)nc6)cc45)CC3)nc2C)cc1` [P-3226, 5-[4-[4-[5-(4-ethoxyphenyl)-4-methyl-1H-imidazol-2-yl]-4-methyl-1-piperidyl]-7H-pyrrolo[2,3-d]pyrimidin-6-yl]-N-methyl-pyridine-2-carboxamide] is 0.0001 to 1 µM. `CCOc1ccc(-c2[nH]c(C3(C)CCN(c4ncnc5[nH]c(-c6ccc(N7CCOCC7)nc6)cc45)CC3)nc2C)cc1` [P-3227, 4-[5-[4-[4-[5-(4-ethoxyphenyl)-4-methyl-1H-imidazol-2-yl]-4-methyl-1-piperidyl]-7H-pyrrolo[2,3-d]pyrimidin-6-yl]-2-pyridyl]morpholine] came in with an IC50 of 0.0001 to 1 µM. The figure for `COc1ccc(-c2[nH]c(C3(C)CCN(c4ncnc5[nH]c(-c6ccc(NS(C)(=O)=O)cc6)cc45)CC3)nc2C)cc1C` [P-3228, N-[4-[4-[4-[5-(4-methoxy-3-methyl-phenyl)-4-methyl-1H-imidazol-2-yl]-4-methyl-1-piperidyl]-7H-pyrrolo[2,3-d]pyrimidin-6-yl]phenyl]methanesulfonamide] is 0.0001 to 1 µM; for `CCOc1ccc(-c2[nH]c(C3(C)CCN(c4ncnc5[nH]c(-c6ccc(C(N)=O)cc6)cc45)CC3)nc2C)cc1` [P-3229, 4-[4-[4-[5-(4-ethoxyphenyl)-4-methyl-1H-imidazol-2-yl]-4-methyl-1-piperidyl]-7H-pyrrolo[2,3-d]pyrimidin-6-yl]benzamide] it is 0.0001 to 1 µM; for `CCOc1ccc(-c2[nH]c(C3(C)CCN(c4ncnc5[nH]c(-c6ccc(NS(C)(=O)=O)cc6)cc45)CC3)nc2C)cc1` [P-3230, N-[4-[4-[4-[5-(4-ethoxyphenyl)-4-methyl-1H-imidazol-2-yl]-4-methyl-1-piperidyl]-7H-pyrrolo[2,3-d]pyrimidin-6-yl]phenyl]methanesulfonamide] it is 0.0001 to 1 µM.

As to `Cc1nc(C2(C)CCN(c3ncnc4[nH]c(-c5ccc(C(N)=O)cc5)cc34)CC2)[nH]c1-c1cccc(OC(F)F)c1` [P-3231, 4-[4-[4-[5-[3-(difluoromethoxy)phenyl]-4-methyl-1H-imidazol-2-yl]-4-methyl-1-piperidyl]-7H-pyrrolo[2,3-d]pyrimidin-6-yl]benzamide], the 50% inhibitory concentration (IC50) lay in the range of 0.0001 to 1 µM.

Take `Cc1nc(C2(C)CCN(c3ncnc4[nH]c(-c5ccc(NS(C)(=O)=O)cc5)cc34)CC2)[nH]c1-c1cccc(OC(F)F)c1` [P-3232, N-[4-[4-[4-[5-[3-(difluoromethoxy)phenyl]-4-methyl-1H-imidazol-2-yl]-4-methyl-1-piperidyl]-7H-pyrrolo[2,3-d]pyrimidin-6-yl]phenyl]methanesulfonamide]: the half-inhibitory concentration (IC50) is 0.0001 to 1 µM. With `Cc1nc(C2(C)CCN(c3ncnc4[nH]c(-c5ccc(OCC(=O)O)cc5)cc34)CC2)[nH]c1-c1cccc(OC(F)F)c1` [P-3233, 2-[4-[4-[4-[5-[3-(difluoromethoxy)phenyl]-4-methyl-1H-imidazol-2-yl]-4-methyl-1-piperidyl]-7H-pyrrolo[2,3-d]pyrimidin-6-yl]phenoxy]acetic acid] the figure was 0.0001 to 1 µM; with `COc1cccc(-c2[nH]c(C3(C)CCN(c4ncnc5[nH]c(-c6ccc(NS(C)(=O)=O)cc6)cc45)CC3)nc2C)c1` [P-3234, N-[4-[4-[4-[5-(3-methoxyphenyl)-4-methyl-1H-imidazol-2-yl]-4-methyl-1-piperidyl]-7H-pyrrolo[2,3-d]pyrimidin-6-yl]phenyl]methanesulfonamide], 0.0001 to 1 µM. Turning to `CNC(=O)c1ccc(-c2cc3c(N4CCC(C)(c5nc(C)c(-c6ccc(C(F)F)cc6)[nH]5)CC4)ncnc3[nH]2)cn1` [P-3235, 5-[4-[4-[5-[4-(difluoromethyl)phenyl]-4-methyl-1H-imidazol-2-yl]-4-methyl-1-piperidyl]-7H-pyrrolo[2,3-d]pyrimidin-6-yl]-N-methyl-pyridine-2-carboxamide], the IC50 lay in the range of 0.0001 to 1 µM. The figure for `CNC(=O)c1ccc(-c2cc3c(N4CCC(C)(c5nc(C)c(-c6cccc(OC(F)F)c6)[nH]5)CC4)ncnc3[nH]2)cn1` [P-3236, 5-[4-[4-[5-[3-(difluoromethoxy)phenyl]-4-methyl-1H-imidazol-2-yl]-4-methyl-1-piperidyl]-7H-pyrrolo[2,3-d]pyrimidin-6-yl]-N-methyl-pyridine-2-carb oxamide] is 0.0001 to 1 µM.

The compound `Cc1nc(C2(C)CCN(c3ncnc4[nH]c(-c5ccc(N6CCOCC6)nc5)cc34)CC2)[nH]c1-c1ccc(C(F)F)cc1` [P-3237, 4-[5-[4-[4-[5-[4-(difluoromethyl)phenyl]-4-methyl-1H-imidazol-2-yl]-4-methyl-1-piperidyl]-7H-pyrrolo[2,3-d]pyrimidin-6-yl]-2-pyridyl]morpholine] yielded an IC50 of 0.0001 to 1 µM. `Cc1nc(C2(C)CCN(c3ncnc4[nH]c(-c5ccc(N6CCOCC6)nc5)cc34)CC2)[nH]c1-c1cccc(OC(F)F)c1` [P-3238, 4-[5-[4-[4-[5-[3-(difluoromethoxy)phenyl]-4-methyl-1H-imidazol-2-yl]-4-methyl-1-piperidyl]-7H-pyrrolo[2,3-d]pyrimidin-6-yl]-2-pyridyl]morpholine]: the IC50 was in the range of 0.0001 to 1 µM. The figure for `Cc1nc(C2(C)CCN(c3ncnc4[nH]c(-c5ccc(C(N)=O)cc5)cc34)CC2)[nH]c1-c1ccc(C(F)F)cc1` [P-3239, 4-[4-[4-[5-[4-(difluoromethyl)phenyl]-4-methyl-1H-imidazol-2-yl]-4-methyl-1-piperidyl]-7H-pyrrolo[2,3-d]pyrimidin-6-yl]benzamide] is 0.0001 to 1 µM; for `Cc1nc(C2(C)CCN(c3ncnc4[nH]c(-c5ccc(OCC(=O)O)cc5)cc34)CC2)[nH]c1-c1ccc(C(F)F)cc1` [P-3240, 2-[4-[4-[4-[5-[4-(difluoromethyl)phenyl]-4-methyl-1H-imidazol-2-yl]-4-methyl-1-piperidyl]-7H-pyrrolo[2,3-d]pyrimidin-6-yl]phenoxy]acetic acid] it is 0.0001 to 1 µM. The figure for `Cc1nc(C2(C)CCN(c3ncnc4[nH]c(-c5ccc(OCC(=O)O)cc5)cc34)CC2)[nH]c1-c1ccc(OC(F)F)cc1` [P-3241, 2-[4-[4-[4-[5-[4-(difluoromethoxy)phenyl]-4-methyl-1H-imidazol-2-yl]-4-methyl-1-piperidyl]-7H-pyrrolo[2,3-d]pyrimidin-6-yl]phenoxy]acetic acid] is 0.0001 to 1 µM.

In the case of `Cc1nc(C2(C)CCN(c3ncnc4[nH]c(-c5cnn(C(F)F)c5)cc34)CC2)[nH]c1-c1ccc(OC(F)F)cc1` [P-3242, 4-[4-[5-[4-(difluoromethoxy)phenyl]-4-methyl-1H-imidazol-2-yl]-4-methyl-1-piperidyl]-6-[1-(difluoromethyl)pyrazol-4-yl]-7H-pyrrolo[2,3-d]pyrimidine], the IC50 was 0.0001 to 1 µM. In turn, `CCOc1ccc(-c2[nH]c(C3(C)CCN(c4ncnc5[nH]c(-c6ccc(C(N)=O)cc6)cc45)CC3)nc2C)cc1C` [P-3243, 4-[4-[4-[5-(4-ethoxy-3-methyl-phenyl)-4-methyl-1H-imidazol-2-yl]-4-methyl-1-piperidyl]-7H-pyrrolo[2,3-d]pyrimidin-6-yl]benzamide] yielded an IC50 of 0.0001 to 1 µM.

Compound `CCOc1ccc(-c2[nH]c(C3(C)CCN(c4ncnc5[nH]c(-c6ccc(OCC(=O)O)cc6)cc45)CC3)nc2C)cc1C` [P-3244, 2-[4-[4-[4-[5-(4-ethoxy-3-methyl-phenyl)-4-methyl-1H-imidazol-2-yl]-4-methyl-1-piperidyl]-7H-pyrrolo[2,3-d]pyrimidin-6-yl]phenoxy]acetic acid] yielded an IC50 of 0.0001 to 1 µM. For the compound `CCOc1ccc(-c2[nH]c(C3(C)CCN(c4ncnc5[nH]c(-c6cnn(C(F)F)c6)cc45)CC3)nc2C)cc1C` [P-3245, 6-[1-(difluoromethyl)pyrazol-4-yl]-4-[4-[5-(4-ethoxy-3-methyl-phenyl)-4-methyl-1H-imidazol-2-yl]-4-methyl-1-piperidyl]-7H-pyrrolo[2,3-d]pyrimidine], the IC50 lay within 0.0001 to 1 µM. The figure for `CNC(=O)c1ccc(-c2cc3c(N4CCC(C)(c5nc(C)c(-c6ccc(OC(F)F)cc6)[nH]5)CC4)ncnc3[nH]2)cn1` [P-3246, 5-[4-[4-[5-[4-(difluoromethoxy)phenyl]-4-methyl-1H-imidazol-2-yl]-4-methyl-1-piperidyl]-7H-pyrrolo[2,3-d]pyrimidin-6-yl]-N-methyl-pyridine-2-carb oxamide] is 0.0001 to 1 µM; for `CCOc1ccc(-c2[nH]c(C3(C)CCN(c4ncnc5[nH]c(-c6ccc(C(=O)NC)nc6)cc45)CC3)nc2C)cc1C` [P-3247, 5-[4-[4-[5-(4-ethoxy-3-methyl-phenyl)-4-methyl-1H-imidazol-2-yl]-4-methyl-1-piperidyl]-7H-pyrrolo[2,3-d]pyrimidin-6-yl]-N-methyl-pyridine-2-carb oxamide] it is 0.0001 to 1 µM; for `Cc1nc(C2(C)CCN(c3ncnc4[nH]c(-c5ccc(N6CCOCC6)nc5)cc34)CC2)[nH]c1-c1ccc(OC(F)F)cc1` [P-3248, 4-[5-[4-[4-[5-[4-(difluoromethoxy)phenyl]-4-methyl-1H-imidazol-2-yl]-4-methyl-1-piperidyl]-7H-pyrrolo[2,3-d]pyrimidin-6-yl]-2-pyridyl]morpholine] it is 0.0001 to 1 µM. With `CCOc1ccc(-c2[nH]c(C3(C)CCN(c4ncnc5[nH]c(-c6ccc(N7CCOCC7)nc6)cc45)CC3)nc2C)cc1C` [P-3249, 4-[5-[4-[4-[5-(4-ethoxy-3-methyl-phenyl)-4-methyl-1H-imidazol-2-yl]-4-methyl-1-piperidyl]-7H-pyrrolo[2,3-d]pyrimidin-6-yl]-2-pyridyl]morpholine] the figure was 0.0001 to 1 µM.

(Values after patent US9771369B2, “Compounds and methods for kinase modulation, and indications therefor” (Plexxikon Inc., priority 2014, dated 2017).)
